The values below come from publication PMC5468338, “Novel Class IIa-Selective Histone Deacetylase Inhibitors Discovered Using an in Silico Virtual Screening Approach” (Scientific Reports, 2017).

Molecules are shown by their SMILES.

The assay has as its target HDAC4 (Homo sapiens, UniProt P56524). The assay is described as follows: HDAC fluorometric activity assay, HDAC4. The note with it: tested at 40 μM, SAHA as reference.

Sequence of HDAC4 (P56524 whole entry): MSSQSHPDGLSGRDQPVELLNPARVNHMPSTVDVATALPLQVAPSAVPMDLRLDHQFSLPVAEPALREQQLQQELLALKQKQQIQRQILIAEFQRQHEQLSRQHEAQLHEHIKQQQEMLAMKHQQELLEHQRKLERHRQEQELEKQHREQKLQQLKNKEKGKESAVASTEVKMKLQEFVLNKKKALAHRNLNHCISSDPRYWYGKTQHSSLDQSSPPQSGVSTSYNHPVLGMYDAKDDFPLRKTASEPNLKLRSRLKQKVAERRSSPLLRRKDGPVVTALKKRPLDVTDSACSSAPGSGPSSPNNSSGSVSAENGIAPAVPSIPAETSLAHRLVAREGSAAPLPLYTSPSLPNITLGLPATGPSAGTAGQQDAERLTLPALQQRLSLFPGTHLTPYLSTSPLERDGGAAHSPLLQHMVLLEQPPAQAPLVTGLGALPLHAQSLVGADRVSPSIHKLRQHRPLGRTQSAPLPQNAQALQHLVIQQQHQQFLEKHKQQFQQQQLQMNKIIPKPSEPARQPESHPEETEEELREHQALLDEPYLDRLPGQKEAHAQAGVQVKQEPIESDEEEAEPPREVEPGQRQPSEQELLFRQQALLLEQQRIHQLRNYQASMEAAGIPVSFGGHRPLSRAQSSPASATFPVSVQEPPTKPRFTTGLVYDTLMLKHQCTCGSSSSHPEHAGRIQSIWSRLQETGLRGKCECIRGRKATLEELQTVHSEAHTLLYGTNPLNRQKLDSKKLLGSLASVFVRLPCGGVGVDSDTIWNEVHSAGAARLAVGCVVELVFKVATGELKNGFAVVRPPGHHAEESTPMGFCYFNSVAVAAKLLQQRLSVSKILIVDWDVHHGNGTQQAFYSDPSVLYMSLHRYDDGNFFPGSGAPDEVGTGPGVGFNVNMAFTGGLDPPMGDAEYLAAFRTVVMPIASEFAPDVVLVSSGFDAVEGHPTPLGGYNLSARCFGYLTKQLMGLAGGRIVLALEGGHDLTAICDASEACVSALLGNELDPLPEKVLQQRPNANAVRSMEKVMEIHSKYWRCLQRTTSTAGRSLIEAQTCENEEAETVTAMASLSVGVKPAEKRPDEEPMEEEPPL
Source text: A fluorogenic based assay[54] was used to validate the 40 candidate compounds.

Consider `O=C(C=Cc1ccc(O)c(O)c1)c1ccc(O)c(O)c1O` [Compound A93087], for which the “HDAC4 inhibitory activity in initial screen compared to SAHA” value is reported as “significantly higher inhibitory activities”.
